Results taken from PubChem BioAssay AID1963977 (Molecular Pharmacology Branch, DTP, NCI, 2024).

Test system: 624824-186-R-J3-PDC multicell spheroids, viability
Test: Anticancer human tumor 624824-186-R-J3-PDC patient-derived colon adenocarcinoma cell line growth inhibition [PI3K]
Conditions: for IC50: curve of first compound; for viability, T/C: stronger effect = lower value
Source text: Combinatorial screen of targeted agents with the PI3K inhibitors inavolisib, alpelisib, duvelisib, and copanlisib in multi-cell type tumor spheroids
A high-throughput screen of multi-cell type tumor spheroids was designed to identify active combinations of targeted small molecules and PI3K pathway inhibitors. Complex spheroids include a stromal component modeled by human endothelial cells (HUVEC) and fibroblasts modeled by human mesenchymal stem cells (MSCs). The concentration ranges selected for each drug and investigational agent were based upon clinically achievable concentrations if the clinical Cmax of the agent was known.
Compounds. The drugs and investigational agents: inavolisib (NSC800729), alpelisib (NSC765974), duvelisib (NSC772469), copanlisib (NSC816437), ipatasertib (NSC767898), afuresertib (NSC778305), talazoparib (NSC767125), sapanisertib (NSC764658), selumetinib (NSC741078), tovorafenib (DAY101, NSC766906), vemurafenib (NSC761431), ravoxertinib (NSC781343), sotorasib (NSC818433), MRTX1133 (NSC 836407), abemaciclib (NSC 768073), palbociclib (NSC758247), venetoclax (NSC 766270), SY5609 (NSC837396), enzalutamide (NSC755605), and darolutamide (NSC825331), were obtained from the National Cancer Institute (NCI) Developmental Therapeutics Program Chemical Repository. The FDA-approved anticancer drug set is available from the NCI Developmental Therapeutics Program. […] The stock solutions were prepared in dimethyl sulfoxide (DMSO, Sigma-Aldrich, St. Louis, MO, cat. D2650) at 800-fold the tested concentration and stored at -70 degrees C prior to their use. All drugs and investigational agents were tested over a range starting from a high concentration at or near the clinical Cmax and decreasing in half-log increments. If the clinical Cmax for an agent had not been determined, the highest concentration tested was 10 microM.
Cell Culture. All cells were maintained in an incubator at 37 degrees C and 5% CO2 with 95% humidity. The PDC lines were cultured according to standard operating procedures established by the NCI PDMR (https://pdmr.cancer.gov/sops/default.htm). All PDCs were thawed and cultured in Matrigel-coated flasks prepared with a working solution of 1X Ham's F-12 nutrient mix, without supplementation (Invitrogen, Waltham, MA, cat. 11765054), 100 U/mL penicillin-streptomycin (Invitrogen, cat. 15140122), and 2.5% Matrigel (Corning Inc., Corning, NY, cat. 354248) for the first three passages. The 354836-022-R-J1-PDC, 475296-252-R-J1-PDC, and 997726-040-R-J2-PDC lines were cultured in 6A media, which includes advanced DMEM/F-12 (Thermo Fisher Scientific, cat. 12634028), 10 mM HEPES (Thermo Fisher Scientific, cat. 15630080), 1X GlutaMAX supplement (Thermo Fisher Scientific, cat. 35050061), 0.1 mg/mL primocin (InvivoGen, San Diego, CA, cat. ant-pm-2), 10% defined fetal bovine serum, heat inactivated (HyClone Laboratories Inc., Logan, UT, cat. SH30070.03HI), 50% L-WRN conditioned media (ATCC, cat. CRL-3276), 1.25 mM N-Acetyl-L-cysteine (Sigma-Aldrich, cat. A9165), 10 mM nicotinamide (Sigma-Aldrich, cat. N0636), 1X B-27 supplement (Thermo Fisher Scientific, cat. 17504044), 1X N-2 supplement (Thermo Fisher Scientific, cat. 17502048), and 10 microM Y-27632 dihydrochloride (Tocris Bioscience, Bristol, United Kingdom, cat. 1254). The 624824-186-R-J2-PDC line was cultured in 6C/Colon 1B media, which includes all 6A media components plus 50 ng/mL human EGF recombinant protein (Thermo Fisher Scientific, cat. PHG0311). […]
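Note: spheroids exposed to agents for seven days before luminescence read.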
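Throughout, for viability, T/C: luminescent signal used as a stand-in for spheroid viability; percent viability relative to DMSO vehicle control wells taken as 100%.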

IC50 (second compound 0.00316 µM): > 10 µM | IC50 (second compound 0.01 µM): > 10 µM | IC50 (second compound 0.0316 µM): > 10 µM | IC50 (second compound 0.1 µM): > 10 µM | IC50 (second compound 0.316 µM): > 10 µM | IC50 (second compound 1 µM): 3.12 µM
Compound: Cn1ncc(Cl)c1-c1cc(C(=O)NC(CN)Cc2cccc(F)c2)sc1Cl (configuration not stated) + CC(Nc1ccc2c(c1)OCCn1cc(N3C(=O)OCC3C(F)F)nc1-2)C(N)=O
viability, T/C (second compound 0.00316 µM, first compound 0.0316 µM): 111% | viability, T/C (second compound 0.00316 µM, first compound 0.1 µM): 105% | viability, T/C (second compound 0.00316 µM, first compound 0.316 µM): 103% | viability, T/C (second compound 0.00316 µM, first compound 1 µM): 74.1% | viability, T/C (second compound 0.00316 µM, first compound 3.16 µM): 55.4% | viability, T/C (second compound 0.00316 µM, first compound 10 µM): 80% | viability, T/C (second compound 0.01 µM, first compound 0.0316 µM): 103% | viability, T/C (second compound 0.01 µM, first compound 0.1 µM): 99.3% | viability, T/C (second compound 0.01 µM, first compound 0.316 µM): 92.9% | viability, T/C (second compound 0.01 µM, first compound 1 µM): 70% | viability, T/C (second compound 0.01 µM, first compound 3.16 µM): 52.4% | viability, T/C (second compound 0.01 µM, first compound 10 µM): 84% | viability, T/C (second compound 0.0316 µM, first compound 0.0316 µM): 104% | viability, T/C (second compound 0.0316 µM, first compound 0.1 µM): 99.4% | viability, T/C (second compound 0.0316 µM, first compound 0.316 µM): 90.2% | viability, T/C (second compound 0.0316 µM, first compound 1 µM): 66.7% | viability, T/C (second compound 0.0316 µM, first compound 3.16 µM): 49.5% | viability, T/C (second compound 0.0316 µM, first compound 10 µM): 83.1% | viability, T/C (second compound 0.1 µM, first compound 0.0316 µM): 103% | viability, T/C (second compound 0.1 µM, first compound 0.1 µM): 97.3% | viability, T/C (second compound 0.1 µM, first compound 0.316 µM): 91.4% | viability, T/C (second compound 0.1 µM, first compound 1 µM): 69.2% | viability, T/C (second compound 0.1 µM, first compound 3.16 µM): 51.4% | viability, T/C (second compound 0.1 µM, first compound 10 µM): 79.2% | viability, T/C (second compound 0.316 µM, first compound 0.0316 µM): 100% | viability, T/C (second compound 0.316 µM, first compound 0.1 µM): 93% | viability, T/C (second compound 0.316 µM, first compound 0.316 µM): 88.5% | viability, T/C (second compound 0.316 µM, first compound 1 µM): 64.1% | viability, T/C (second compound 0.316 µM, first compound 3.16 µM): 42% | viability, T/C (second compound 0.316 µM, first compound 10 µM): 62.4% | viability, T/C (second compound 1 µM, first compound 0.0316 µM): 90.1% | viability, T/C (second compound 1 µM, first compound 0.1 µM): 90.6% | viability, T/C (second compound 1 µM, first compound 0.316 µM): 76.7% | viability, T/C (second compound 1 µM, first compound 1 µM): 63.7% | viability, T/C (second compound 1 µM, first compound 3.16 µM): 44.3% | viability, T/C (second compound 1 µM, first compound 10 µM): 50.9%
